ChEMBL document CHEMBL1150411, “4-(Phenylaminomethylene)isoquinoline-1,3(2H,4H)-diones as potent and selective inhibitors of the cyclin-dependent kinase 4 (CDK4)” (J Med Chem, 2008)
Converted amounts (≈) assume the structure as drawn.

What was measured:
[1] = target: Cyclin-dependent kinase 4/cyclin D1 (Homo sapiens, UniProt P11802); assay: Inhibition of CDK4/cyclin D1 expressed in Sf9 cells-baculovirus system assessed as retinoblastoma susceptibility gene product phosphorylation
[2] = target: Cyclin-dependent kinase 1/cyclin B1 (Homo sapiens, UniProt P06493); assay: Inhibition of CDK1/Cyclin B1 expressed in Sf9 cells-baculovirus system assessed as retinoblastoma susceptibility gene product phosphorylation
[3] = target: Cyclin-dependent kinase 2 (Homo sapiens, UniProt P24941); assay: Inhibition of CDK2/cyclin E expressed in Sf9 cells-baculovirus system assessed as retinoblastoma susceptibility gene product phosphorylation
HCT-116 = assay: Antiproliferative activity against human HCT116 cells by SRB method; assay type: functional, cell-based
MCF7 = assay: Antiproliferative activity against human MCF7 cells by SRB method; assay type: functional, cell-based
[4] = Aqueous solubility at pH 7.4; assay type: physicochemical

Chain of Cyclin-dependent kinase 1/cyclin B1 (P06493 whole entry): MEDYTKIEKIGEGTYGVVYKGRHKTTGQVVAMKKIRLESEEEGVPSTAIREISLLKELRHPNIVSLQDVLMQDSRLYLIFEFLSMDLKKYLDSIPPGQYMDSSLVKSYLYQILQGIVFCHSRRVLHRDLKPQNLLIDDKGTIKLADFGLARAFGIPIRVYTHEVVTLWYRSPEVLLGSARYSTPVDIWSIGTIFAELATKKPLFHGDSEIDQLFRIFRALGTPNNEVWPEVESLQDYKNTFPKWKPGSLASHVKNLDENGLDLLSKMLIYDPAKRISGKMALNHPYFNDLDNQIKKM
Chain of Cyclin-dependent kinase 1/cyclin B1 (P14635 whole entry, further chain): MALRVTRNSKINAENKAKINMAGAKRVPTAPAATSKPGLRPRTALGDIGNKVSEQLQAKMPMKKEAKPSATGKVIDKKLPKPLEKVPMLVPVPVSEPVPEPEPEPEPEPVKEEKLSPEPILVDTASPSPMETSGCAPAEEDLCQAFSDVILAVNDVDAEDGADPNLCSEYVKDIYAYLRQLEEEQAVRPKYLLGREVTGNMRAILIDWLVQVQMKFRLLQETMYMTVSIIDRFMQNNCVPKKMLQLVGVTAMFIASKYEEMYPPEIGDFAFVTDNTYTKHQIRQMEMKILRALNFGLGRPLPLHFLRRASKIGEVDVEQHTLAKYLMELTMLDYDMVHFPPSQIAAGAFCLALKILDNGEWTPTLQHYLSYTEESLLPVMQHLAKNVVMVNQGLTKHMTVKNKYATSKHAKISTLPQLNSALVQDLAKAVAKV
Chain of Cyclin-dependent kinase 4/cyclin D1 (P11802 whole entry): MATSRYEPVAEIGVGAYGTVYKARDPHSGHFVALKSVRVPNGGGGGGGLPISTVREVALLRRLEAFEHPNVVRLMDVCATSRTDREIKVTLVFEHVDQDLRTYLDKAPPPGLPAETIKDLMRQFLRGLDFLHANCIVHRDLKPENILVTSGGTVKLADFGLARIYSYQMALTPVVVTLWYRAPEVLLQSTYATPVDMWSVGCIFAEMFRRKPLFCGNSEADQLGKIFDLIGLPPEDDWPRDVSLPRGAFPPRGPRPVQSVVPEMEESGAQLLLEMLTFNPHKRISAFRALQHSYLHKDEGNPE
Chain of Cyclin-dependent kinase 4/cyclin D1 (P24385 whole entry, further chain): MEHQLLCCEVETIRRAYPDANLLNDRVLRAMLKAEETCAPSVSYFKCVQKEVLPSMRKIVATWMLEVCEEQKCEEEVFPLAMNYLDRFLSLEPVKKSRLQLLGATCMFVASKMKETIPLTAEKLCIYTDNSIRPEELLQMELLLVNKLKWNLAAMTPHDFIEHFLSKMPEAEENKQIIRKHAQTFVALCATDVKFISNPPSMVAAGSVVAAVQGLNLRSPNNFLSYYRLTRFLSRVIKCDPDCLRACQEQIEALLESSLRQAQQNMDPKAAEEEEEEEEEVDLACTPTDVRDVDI

IC50 [1] [µM]	IC50 [2] [µM]	IC50 [3] [µM]	IC50 (HCT-116) [µM]	IC50 (MCF7) [µM]	solubility [4] [µg/mL]	SMILES
15.1	> 50	> 50	–	–	–	O=C1NC(=O)c2ccc([N+](=O)[O-])cc2/C1=C/Nc1ccc(CN2CCCCC2)cc1
0.13	> 50	> 50	–	–	–	COc1ccc(-c2ccc3c(c2)/C(=C/Nc2ccc(CN4CCCCC4)cc2)C(=O)NC3=O)cc1
0.32	> 50	> 50	1.9	2.6	18 (≈ 36 µM)	CN1CC2CC1CN2c1ccc(N/C=C2\C(=O)NC(=O)c3ccc(I)cc32)cc1 (centres undefined)
–	> 50	–	2.2	0.9	–	CN1CCN(c2ccc(N/C=C3\C(=O)NC(=O)c4ccc(-c5ccoc5)cc43)cc2F)CC1
3	> 50	> 50	5	1	4 (≈ 7.75 µM)	C[C@@H]1CN(c2ccc(N/C=C3\C(=O)NC(=O)c4ccc(I)cc43)cc2)[C@@H](C)CN1C
0.33	> 50	> 50	–	–	–	CN1CCN(c2ccc(N/C=C3\C(=O)NC(=O)c4ccc(-c5ccco5)cc43)cc2)CC1
10	> 27	21	–	–	–	O=C1NC(=O)c2ccccc2/C1=C/Nc1ccc(CN2CCOCC2)cc1
0.32	> 50	> 50	–	–	–	O=C1NC(=O)c2ccc(-c3ccccc3)cc2/C1=C/Nc1ccc(CN2CCCCC2)cc1
–	> 50	–	1.2	1.1	–	CN1CCN(c2ccc(N/C=C3\C(=O)NC(=O)c4ccc(-c5ccoc5)cc43)cc2)CC1
–	> 50	–	2.7	1	–	O=C1NC(=O)c2ccc(I)cc2/C1=C/Nc1ccc(CN2CCCCC2)cc1
> 29	> 29	–	–	–	–	O=C1NC(=O)c2ccccc2/C1=C/Nc1ccc(N2CCOCC2)cc1
1	> 50	> 50	–	–	–	O=C1NC(=O)c2ccc(N3CCCCC3)cc2/C1=C/Nc1ccc(CN2CCCCC2)cc1
–	> 50	–	–	–	–	O=C1NC(=O)c2ccc(Nc3ccccc3)cc2/C1=C/Nc1ccc(CN2CCCCC2)cc1
–	> 50	–	–	–	–	COc1cccc(-c2ccc3c(c2)/C(=C/Nc2ccc(CN4CCCCC4)cc2)C(=O)NC3=O)c1
–	> 50	> 50	–	–	–	O=C1NC(=O)c2ccc(-c3ccoc3)cc2/C1=C/Nc1ccc(CN2CCCCC2)cc1
0.1	> 50	–	1.4	2.3	–	CN1CCN(c2ccc(N/C=C3\C(=O)NC(=O)c4ccc(-c5ccsc5)cc43)cc2)CC1
2	> 50	> 50	–	–	–	COc1ccc2c(c1)/C(=C/Nc1ccc(CN3CCCCC3)cc1)C(=O)NC2=O
–	> 50	> 50	1	0.55	–	O=C1NC(=O)c2ccc(-c3ccc(F)cc3)cc2/C1=C/Nc1ccc(CN2CCCCC2)cc1
–	> 50	> 50	1.3	2	–	O=C1NC(=O)c2ccc(-c3cccc(O)c3)cc2/C1=C/Nc1ccc(CN2CCCCC2)cc1
–	> 50	> 50	–	–	–	O=C1NC(=O)c2ccc(-c3ccc(Cl)cc3)cc2/C1=C/Nc1ccc(CN2CCCCC2)cc1
0.39	> 50	> 50	–	–	–	CN1CCN(c2ccc(N/C=C3\C(=O)NC(=O)c4ccc(-c5ccccc5)cc43)cc2)CC1
–	> 50	–	–	–	–	CN1CCN(c2ccc(N/C=C3\C(=O)NC(=O)c4ccc(-c5ccoc5)cc43)nc2)CC1
0.14	> 50	> 50	1.5	2.3	–	CN1CCN(c2ccc(N/C=C3\C(=O)NC(=O)c4ccc(-n5cccc5)cc43)cc2)CC1
0.05	> 50	> 50	–	–	–	O=C1NC(=O)c2ccc(-c3cccnc3)cc2/C1=C/Nc1ccc(CN2CCCCC2)cc1

IC50 [1] [µM]	IC50 [2] [µM]	IC50 [3] [µM]	IC50 (HCT-116) [µM]	IC50 (MCF7) [µM]	solubility [4] [µg/mL]	SMILES
> 50	> 50	> 50	–	–	–	O=C1NC(=O)c2ccc(-c3ccc(Oc4ccccc4)cc3)cc2/C1=C\Nc1ccc(CN2CCCCC2)cc1
–	–	–	1.1	3.2	–	CN1CCN(c2ncc(N/C=C3\C(=O)NC(=O)c4ccc(-c5ccoc5)cc43)cn2)CC1
11	13.8	> 50	–	–	–	CC(=O)Nc1ccc2c(c1)/C(=C/Nc1ccc(N3CCN(C)CC3)cc1)C(=O)NC2=O
–	> 50	> 50	–	–	–	CN1CCN(c2ccc3c(c2)/C(=C/Nc2ccc(CN4CCCCC4)cc2)C(=O)NC3=O)CC1
–	–	–	1.9	4.5	–	CN1CCN(c2ccc(N/C=C3\C(=O)NC(=O)c4ccc(-c5ccoc5)cc43)nn2)CC1
0.11	> 50	> 50	–	–	–	CN1CCN(c2ccc(N/C=C3\C(=O)NC(=O)c4ccc(-c5ccoc5)cc43)cn2)CC1
–	> 50	–	–	–	1 (≈ 2.05 µM)	CN1CCN(c2ccc(N/C=C3\C(=O)NC(=O)c4ccc(I)cc43)cc2)CC1
–	> 50	> 50	–	–	–	O=C1NC(=O)c2ccc(N3CCOCC3)cc2/C1=C/Nc1ccc(CN2CCCCC2)cc1
–	> 50	–	–	–	4 (≈ 7.75 µM)	C[C@@H]1CN(c2ccc(N/C=C3\C(=O)NC(=O)c4ccc(I)cc43)cc2)C[C@H](C)N1C
3.3	> 27	19.6	–	–	–	O=C1NC(=O)c2ccccc2/C1=C/Nc1ccc(CN2CCCCC2)cc1
3.5	> 50	–	–	–	–	CC(=O)Nc1ccc2c(c1)/C(=C/Nc1ccc(CN3CCCCC3)cc1)C(=O)NC2=O
1	> 50	> 50	–	–	12 (≈ 23.9 µM)	C[C@@H]1CN(c2ccc(N/C=C3\C(=O)NC(=O)c4ccc(I)cc43)cc2)C[C@H](C)N1
–	> 50	–	–	–	–	O=C1NC(=O)c2ccc(Cl)cc2/C1=C/Nc1ccc(CN2CCCCC2)cc1
4.1	> 28	> 28	–	–	–	CN1CCN(c2ccc(N/C=C3\C(=O)NC(=O)c4ccccc43)cc2)CC1
–	> 50	> 50	–	–	–	O=C1NC(=O)c2ccc(-c3ccc(O)cc3)cc2/C1=C/Nc1ccc(CN2CCCCC2)cc1
14.3	–	–	–	–	–	CN1CCN(c2ccc(N/C=C3\C(=O)NC(=O)c4ccc(/C=C/c5ccccc5)cc43)cc2)CC1
0.13	> 50	–	1	3.4	–	O=C1NC(=O)c2ccc(-c3ccsc3)cc2/C1=C/Nc1ccc(CN2CCCCC2)cc1
–	> 50	> 50	–	–	5 (≈ 9.95 µM)	CC1CN(c2ccc(N/C=C3\C(=O)NC(=O)c4ccc(I)cc43)cc2)CCN1C (centres undefined)
12.1	> 50	–	–	–	–	CN1CCN(c2ccc(N/C=C3\C(=O)NC(=O)c4cc(Br)ccc43)cc2)CC1
1.62	> 50	> 50	–	–	–	CN1CCN(c2ccc(N/C=C3\C(=O)NC(=O)c4ccc(N5CCCCC5)cc43)cc2)CC1
1.25	–	–	0.95	1.3	–	CN1CCN(c2cnc(N/C=C3\C(=O)NC(=O)c4ccc(-c5ccoc5)cc43)cn2)CC1
–	> 50	–	–	–	–	CN1CCN(c2ccc(N/C=C3\C(=O)NC(=O)c4ccc(C(=O)N(C)C)cc43)cc2)CC1
0.14	> 50	> 50	2.7	2.1	–	O=C1NC(=O)c2ccc(-n3cccc3)cc2/C1=C/Nc1ccc(CN2CCCCC2)cc1

SMILES	IC50 [1] [µM]	IC50 [2] [µM]	IC50 [3] [µM]	IC50 (HCT-116) [µM]	IC50 (MCF7) [µM]	solubility [4] [µg/mL]
CN(C)C(=O)c1ccc2c(c1)/C(=C/Nc1ccc(CN3CCCCC3)cc1)C(=O)NC2=O	–	> 50	39.8	–	–	–
